Source: ChEMBL document CHEMBL4680155, “One-pot synthesis and molecular docking of some new spiropyranindol-2-one derivatives as immunomodulatory agents and in vitro antimicrobial potential with DNA gyrase inhibitor” (Eur J Med Chem, 2020)
≈ marks a conversion by molar mass, not a printed value. Calls of active or inactive are those of the source. The rule behind the calls is not given here.

How the values were obtained:
Staphylococcus aureus [1] = test: Antibacterial activity against Staphylococcus aureus ATCC 29213 assessed as reduction in bacterial growth incubated for 1 day by paper disk diffusion method; format: functional
Aspergillus brasiliensis [2] = test: Antifungal activity against Aspergillus brasiliensis ATCC 16404 assessed as diameter of inhibition zone at 0.5 mg/ml incubated for 72 hrs by agar diffusion method; format: functional; settings: read-out: DIZ
Candida albicans [3] = test: Antifungal activity against Candida albicans ATCC 10231 assessed as diameter of inhibition zone at 0.5 mg/ml incubated for 24 hrs by agar diffusion method; format: functional; settings: read-out: DIZ
Staphylococcus aureus [4] = test: Antibacterial activity against multidrug resistant Staphylococcus aureus ATCC 43300 assessed as diameter of inhibition zone at 0.5 mg/ml incubated for 24 hrs by agar diffusion method; format: functional; settings: read-out: DIZ
Staphylococcus aureus [5] = test: Antibacterial activity against multidrug resistant Staphylococcus aureus ATCC 33591 assessed as diameter of inhibition zone at 0.5 mg/ml incubated for 24 hrs by agar diffusion method; format: functional; settings: read-out: DIZ
Staphylococcus aureus [6] = test: Antibacterial activity against multidrug resistant Staphylococcus aureus ATCC 33591 assessed as reduction in bacterial growth incubated for 1 day by paper disk diffusion method; format: functional; settings: ATCC 33591, 24 h
Neutrophil = test: Immunomodulatory activity in human neutrophils infected with bacteria assessed as increase in bacterial killing by measuring reduced NBT incubated for 30 mins by NBT dye based spectrophotometry; format: functional; design: concentration or dose not given beside the values; settings: 0.5 h
Staphylococcus aureus [7] = test: Bactericidal activity against Staphylococcus aureus ATCC 29213 incubated for 24 hrs followed by transferring to freshly prepared broth medium and measured after 24 hrs by broth microdilution assay; format: functional; settings: time 48 hrs
Staphylococcus aureus [8] = test: Bactericidal activity against Staphylococcus aureus ATCC 33591 incubated for 24 hrs followed by transferring to freshly prepared broth medium and measured after 24 hrs by broth microdilution assay; format: functional; settings: time 48 hrs
Pseudomonas aeruginosa [9] = test: Antibacterial activity against multidrug resistant Pseudomonas aeruginosa ATCC BAA-2111 assessed as diameter of inhibition zone at 0.5 mg/ml incubated for 24 hrs by agar diffusion method; format: functional; settings: read-out: DIZ
Aspergillus brasiliensis [10] = test: Fungicidal activity against Aspergillus brasiliensis ATCC 16404 incubated for 72 hrs followed by transferring to freshly prepared broth medium and measured after 24 hrs by broth microdilution assay; format: functional; settings: time 96 hrs
Staphylococcus aureus [11] = test: Bactericidal activity against Staphylococcus aureus ATCC 43300 incubated for 24 hrs followed by transferring to freshly prepared broth medium and measured after 24 hrs by broth microdilution assay; format: functional; settings: time 48 hrs
Enterococcus faecalis [12] = test: Antibacterial activity against Enterococcus faecalis ATCC 29212 assessed as diameter of inhibition zone at 0.5 mg/ml incubated for 24 hrs by agar diffusion method; format: functional
Enterococcus faecalis [13] = test: Antibacterial activity against Enterococcus faecalis ATCC 29212 assessed as reduction in bacterial growth incubated for 1 day by paper disk diffusion method; format: functional
Salmonella typhimurium [14] = test: Bactericidal activity against Salmonella typhi ATCC 6539 incubated for 24 hrs followed by transferring to freshly prepared broth medium and measured after 24 hrs by broth microdilution assay; format: functional, Salmonella enterica subsp. enterica serovar […]; settings: Salmonella enterica, time 48 hrs
Pseudomonas aeruginosa [15] = test: Antibacterial activity against multidrug resistant Pseudomonas aeruginosa ATCC BAA-2111 assessed as reduction in bacterial growth incubated for 1 day by paper disk diffusion method; format: functional; settings: ATCC BAA-2111, 24 h
Staphylococcus aureus [16] = test: Antibacterial activity against Staphylococcus aureus ATCC 29213 assessed as diameter of inhibition zone at 0.5 mg/ml incubated for 24 hrs by agar diffusion method; format: functional
DNA gyrase = DNA gyrase (Staphylococcus aureus, UniProt P0A0K8+P20831); test: Inhibition of Staphylococcus aureus DNA gyrase using relaxed pBR322 DNA as substrate incubated for 45 mins by agarose gel electrophoresis method; format: protein-complex assay
Escherichia coli [17] = test: Antibacterial activity against multidrug resistant Escherichia coli ATCC BAA-196 assessed as diameter of inhibition zone at 0.5 mg/ml incubated for 24 hrs by agar diffusion method; format: functional; settings: read-out: DIZ
Salmonella typhimurium [18] = test: Antibacterial activity against Salmonella typhi ATCC 6539 assessed as diameter of inhibition zone at 0.5 mg/ml incubated for 24 hrs by agar diffusion method; format: functional, Salmonella enterica subsp. enterica serovar Typhimurium
Enterococcus faecalis [19] = test: Bactericidal activity against Enterococcus faecalis ATCC 29212 incubated for 24 hrs followed by transferring to freshly prepared broth medium and measured after 24 hrs by broth microdilution assay; format: functional; settings: time 48 hrs
Salmonella typhimurium [20] = test: Antibacterial activity against Salmonella typhi ATCC 6539 assessed as reduction in bacterial growth incubated for 1 day by paper disk diffusion method; format: functional, Salmonella enterica subsp. enterica serovar Typhimurium
Pseudomonas aeruginosa [21] = test: Bactericidal activity against Pseudomonas aeruginosa ATCC BAA-2111 incubated for 24 hrs followed by transferring to freshly prepared broth medium and measured after 24 hrs by broth microdilution assay; format: functional; settings: time 48 hrs
Aspergillus brasiliensis [22] = test: Antifungal activity against Aspergillus brasiliensis ATCC 16404 assessed as reduction in bacterial growth incubated for 3 days by paper disk diffusion method; format: functional; settings: ATCC 16404, 72 h, time 3 day
Escherichia coli [23] = test: Bactericidal activity against Escherichia coli ATCC BAA-196 incubated for 24 hrs followed by transferring to freshly prepared broth medium and measured after 24 hrs by broth microdilution assay; format: functional; settings: time 48 hrs
Escherichia coli [24] = test: Antibacterial activity against multidrug resistant Escherichia coli ATCC BAA-196 assessed as reduction in bacterial growth incubated for 1 day by paper disk diffusion method; format: functional; settings: ATCC BAA-196, 24 h
Escherichia coli [25] = test: Antibacterial activity against Escherichia coli ATCC 25922 assessed as diameter of inhibition zone at 0.5 mg/ml incubated for 24 hrs by agar diffusion method; format: functional
Escherichia coli [26] = test: Antibacterial activity against Escherichia coli ATCC 25922 assessed as reduction in bacterial growth incubated for 1 day by paper disk diffusion method; format: functional
Staphylococcus aureus [27] = test: Antibacterial activity against multidrug resistant Staphylococcus aureus ATCC 43300 assessed as reduction in bacterial growth incubated for 1 day by paper disk diffusion method; format: functional; settings: ATCC 43300, 24 h
Candida albicans [28] = test: Fungicidal activity against Candida albicans ATCC 10231 incubated for 24 hrs followed by transferring to freshly prepared broth medium and measured after 24 hrs by broth microdilution assay; format: functional; settings: time 48 hrs
Candida albicans [29] = test: Antifungal activity against Candida albicans ATCC 10231 assessed as reduction in bacterial growth incubated for 1 day by paper disk diffusion method; format: functional; settings: ATCC 10231, 24 h
Escherichia coli [30] = test: Bactericidal activity against Escherichia coli ATCC 25922 incubated for 24 hrs followed by transferring to freshly prepared broth medium and measured after 24 hrs by broth microdilution assay; format: functional; settings: time 48 hrs
[31] = Salmonella enterica subsp. enterica serovar Typhimurium

DNA gyrase, sequence (P0A0K8 whole entry, the tested form may be a part): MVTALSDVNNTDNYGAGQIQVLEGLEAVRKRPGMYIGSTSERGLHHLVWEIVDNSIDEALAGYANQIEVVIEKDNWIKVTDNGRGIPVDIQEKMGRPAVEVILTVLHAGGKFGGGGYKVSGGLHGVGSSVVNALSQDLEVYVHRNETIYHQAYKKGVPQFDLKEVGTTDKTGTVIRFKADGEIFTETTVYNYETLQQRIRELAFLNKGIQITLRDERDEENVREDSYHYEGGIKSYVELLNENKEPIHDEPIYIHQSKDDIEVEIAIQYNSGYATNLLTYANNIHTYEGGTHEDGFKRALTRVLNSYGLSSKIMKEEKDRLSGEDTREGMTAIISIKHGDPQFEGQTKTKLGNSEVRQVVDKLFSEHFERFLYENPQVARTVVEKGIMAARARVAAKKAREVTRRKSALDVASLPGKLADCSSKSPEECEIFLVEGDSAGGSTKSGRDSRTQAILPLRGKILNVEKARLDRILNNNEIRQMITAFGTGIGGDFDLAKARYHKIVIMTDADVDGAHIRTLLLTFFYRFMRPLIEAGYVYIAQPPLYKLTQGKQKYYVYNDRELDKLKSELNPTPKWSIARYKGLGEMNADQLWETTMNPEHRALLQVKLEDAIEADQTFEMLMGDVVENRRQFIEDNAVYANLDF
DNA gyrase, sequence (P20831 whole entry, the tested form may be a part): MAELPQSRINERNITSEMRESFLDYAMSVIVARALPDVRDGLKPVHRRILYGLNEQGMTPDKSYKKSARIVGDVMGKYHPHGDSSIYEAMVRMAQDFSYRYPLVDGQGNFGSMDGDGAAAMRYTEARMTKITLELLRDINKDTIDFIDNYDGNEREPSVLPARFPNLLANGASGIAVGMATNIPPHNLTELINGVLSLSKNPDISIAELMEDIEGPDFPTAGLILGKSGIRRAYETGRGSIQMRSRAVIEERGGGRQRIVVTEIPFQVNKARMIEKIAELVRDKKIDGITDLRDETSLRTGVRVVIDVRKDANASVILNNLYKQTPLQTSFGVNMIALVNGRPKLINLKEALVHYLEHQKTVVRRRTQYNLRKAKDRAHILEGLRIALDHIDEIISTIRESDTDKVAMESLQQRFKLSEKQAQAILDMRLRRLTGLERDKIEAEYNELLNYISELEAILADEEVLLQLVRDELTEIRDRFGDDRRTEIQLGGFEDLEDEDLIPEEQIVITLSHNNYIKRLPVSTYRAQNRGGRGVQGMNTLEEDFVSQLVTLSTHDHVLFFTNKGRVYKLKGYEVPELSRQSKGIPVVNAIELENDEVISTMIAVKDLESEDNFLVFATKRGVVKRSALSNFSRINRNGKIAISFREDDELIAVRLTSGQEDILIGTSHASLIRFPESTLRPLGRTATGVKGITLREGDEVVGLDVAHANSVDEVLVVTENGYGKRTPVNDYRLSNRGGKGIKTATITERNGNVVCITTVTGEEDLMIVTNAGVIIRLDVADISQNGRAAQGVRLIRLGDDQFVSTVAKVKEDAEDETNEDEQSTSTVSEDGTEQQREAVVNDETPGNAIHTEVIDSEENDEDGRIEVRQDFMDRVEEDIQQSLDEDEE

Compound `CCOC(=O)C1=C(c2ccccc2)OC(N)=C(C#N)C12C(=O)Nc1ccc(S(=O)(=O)N3CCCCC3)cc12` (stereo not given) has an MIC (Staphylococcus aureus [1]; ATCC 29213, 24 h) of 71.1 µg/mL (≈ 133 µM), a zone of inhibition at 500 µg/mL (Aspergillus brasiliensis [2]) of 20 mm and a zone of inhibition at 500 µg/mL (Candida albicans [3]) of 22 mm. The zone of inhibition at 500 µg/mL (Staphylococcus aureus [4]) was 24 mm, the zone of inhibition at 500 µg/mL (Staphylococcus aureus [5]) was 25 mm and the MIC (Staphylococcus aureus [6]) was 1.95 µg/mL (≈ 3.65 µM). It also gave an Activity (Neutrophil) of 95.4%, an MBC (Staphylococcus aureus [7]) of 99.5 µg/mL (≈ 186 µM) and an MBC (Staphylococcus aureus [8]) of 3.31 µg/mL (≈ 6.19 µM). For the same compound, the zone of inhibition at 500 µg/mL (Pseudomonas aeruginosa [9]) was 24 mm, the MFC (Aspergillus brasiliensis [10]) was 125 µg/mL (≈ 234 µM) and the MBC (Staphylococcus aureus [11]) was 2.92 µg/mL (≈ 5.46 µM). For the same compound, the zone of inhibition at 500 µg/mL (Enterococcus faecalis [12]; read-out: DIZ) was 24 mm, the MIC (Enterococcus faecalis [13]; ATCC 29212, 24 h) was 15.6 µg/mL (≈ 29.2 µM) and the MBC (Salmonella typhimurium [14]) was 20.3 µg/mL (≈ 38 µM). It also gave an MIC (Pseudomonas aeruginosa [15]) of 3.9 µg/mL (≈ 7.3 µM), a zone of inhibition at 500 µg/mL (Staphylococcus aureus [16]; read-out: DIZ) of 21 mm and an IC50 (DNA gyrase) of 19.8 µM. The zone of inhibition at 500 µg/mL (Escherichia coli [17]) was 26 mm, the zone of inhibition at 500 µg/mL (Salmonella typhimurium [18]; Salmonella enterica, read-out: DIZ) was 24 mm and the MBC (Enterococcus faecalis [19]) was 31.2 µg/mL (≈ 58.4 µM). For the same compound, the MIC (Salmonella typhimurium [20]; Salmonella enterica, ATCC 6539, 24 h) was 15.6 µg/mL (≈ 29.2 µM), the MBC (Pseudomonas aeruginosa [21]) was 6.24 µg/mL (≈ 11.7 µM) and the MIC (Aspergillus brasiliensis [22]) was 62.5 µg/mL (≈ 117 µM). The MBC (Escherichia coli [23]) was 2.35 µg/mL (≈ 4.4 µM), the MIC (Escherichia coli [24]) was 1.57 µg/mL (≈ 2.94 µM) and the zone of inhibition at 500 µg/mL (Escherichia coli [25]; read-out: DIZ) was 23 mm. It also gave an MIC (Escherichia coli [26]; ATCC 25922, 24 h) of 15.6 µg/mL (≈ 29.2 µM), an MIC (Staphylococcus aureus [27]) of 1.95 µg/mL (≈ 3.65 µM) and an MFC (Candida albicans [28]) of 25 µg/mL (≈ 46.8 µM). For the same compound, the MIC (Candida albicans [29]) was 12.5 µg/mL (≈ 23.4 µM) and the MBC (Escherichia coli [30]) was 21.9 µg/mL (≈ 40.9 µM).
In the case of `C[C@@H]1[C@H](O)[C@@H](C)/C=C/C=C/C=C/C=C/C=C/C=C/C=C/[C@H](O[C@@H]2O[C@H](C)[C@@H](O)[C@H](N)[C@@H]2O)C[C@@H]2O[C@](O)(C[C@@H](O)C[C@@H](O)[C@H](O)CC[C@@H](O)C[C@@H](O)CC(=O)O[C@H]1C)C[C@H](O)[C@H]2C(=O)O` [AMPHOTERICIN B], the MIC (Staphylococcus aureus [1]) is reported as “inactive”, the zone of inhibition at 500 µg/mL (Candida albicans [3]) is reported as 22 mm and the MFC (Aspergillus brasiliensis [10]) is reported as 65.6 µg/mL (≈ 71 µM). The “diameter of the inhibition zone (DIZ)” value (Enterococcus faecalis [12]) was “inactive”, the MIC (Enterococcus faecalis [13]) was “inactive” and the “diameter of the inhibition zone (DIZ)” value (Staphylococcus aureus [16]) was “inactive”. For the same compound, the “diameter of the inhibition zone (DIZ)” value (Salmonella typhimurium [18]; [31]) was “inactive”, the MIC (Salmonella typhimurium [20]; [31]) was “inactive” and the MIC (Aspergillus brasiliensis [22]) was 31.2 µg/mL (≈ 33.8 µM). The “diameter of the inhibition zone (DIZ)” value (Escherichia coli [25]) was “inactive”, the MIC (Escherichia coli [26]) was “inactive” and the MFC (Candida albicans [28]) was 34.6 µg/mL (≈ 37.5 µM). The MIC (Candida albicans [29]) was 15.6 µg/mL (≈ 16.9 µM).
